What was measured:
Type in all cases: cell-based
[1] = molecular target: T1, URAT1 (SLC22A12) (Homo sapiens, UniProt Q96S37); experiment: Inhibition of human URAT1-mediated urate uptake in HEK293 cells at 2 uM; settings: HEK293 cells expressing human URAT1, probe urate
T1 sequence (Q96S37 whole entry): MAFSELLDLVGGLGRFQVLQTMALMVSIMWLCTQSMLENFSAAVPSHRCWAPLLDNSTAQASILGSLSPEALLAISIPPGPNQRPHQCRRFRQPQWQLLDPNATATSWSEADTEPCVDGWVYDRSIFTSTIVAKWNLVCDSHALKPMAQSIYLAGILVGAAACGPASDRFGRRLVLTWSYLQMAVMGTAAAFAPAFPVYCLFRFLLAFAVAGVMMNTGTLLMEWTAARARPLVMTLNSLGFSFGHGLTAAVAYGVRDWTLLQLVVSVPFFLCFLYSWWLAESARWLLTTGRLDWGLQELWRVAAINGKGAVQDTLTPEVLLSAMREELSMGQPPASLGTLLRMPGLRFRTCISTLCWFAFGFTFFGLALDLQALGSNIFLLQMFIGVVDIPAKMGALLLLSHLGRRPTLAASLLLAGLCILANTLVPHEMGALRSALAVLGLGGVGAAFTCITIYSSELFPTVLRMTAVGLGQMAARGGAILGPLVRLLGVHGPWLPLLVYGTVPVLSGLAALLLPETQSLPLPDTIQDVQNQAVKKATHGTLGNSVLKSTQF

[2] = molecular target: T2, Solute carrier family 22 member 12 (Homo sapiens, UniProt Q96S37); experiment: Inhibition of human URAT1-mediated urate uptake in HEK293 cells by competitive inhibition assay
T2 sequence (Q96S37 whole entry): T1 sequence (Q96S37 whole entry)

[3] = molecular target: T2, Solute carrier family 22 member 12; experiment: Inhibition of human URAT1-mediated urate uptake in HEK293 cells

Row | inhibition at 2 µM [1] | Ki [2] | IC50 [3] | Structure (SMILES)
1 | 70% | – | – | CCc1oc2ccccc2c1C(=O)c1cc(Br)c(O)c(Br)c1 [BENZBROMARONE]
2 | – | 5.74 µM | 2 µM | O=c1c(O)c(-c2ccc(O)cc2O)oc2cc(O)cc(O)c12 [MORIN]
3 | 30% | – | – | CCCN(CCC)S(=O)(=O)c1ccc(C(=O)O)cc1 [PROBENECID]
4 | – | – | 100 µM | O=C1C(CC[S+]([O-])c2ccccc2)C(=O)N(c2ccccc2)N1c1ccccc1 (stereo not given) [SULFINPYRAZONE]

Reference: ChEMBL document CHEMBL1147070 (Drug Metab Dispos, 2007)
